# Changes are numbered by the printed parent chain.
# Tests used:
# [1] = molecular target: T1, recombinant human GCase (rhGCase; Cerezyme®) (Homo sapiens, UniProt P04062, R534H); experiment: In vitro enzyme inhibition assay of rhGCase with 4-MU-β-D-Glc fluorogenic substrate; type: biochemical; conditions: pH 5.2; average of three independent experiments
# T1 construct: purchased Genzyme Corp
# T1 sequence (P04062 40-536 R534H): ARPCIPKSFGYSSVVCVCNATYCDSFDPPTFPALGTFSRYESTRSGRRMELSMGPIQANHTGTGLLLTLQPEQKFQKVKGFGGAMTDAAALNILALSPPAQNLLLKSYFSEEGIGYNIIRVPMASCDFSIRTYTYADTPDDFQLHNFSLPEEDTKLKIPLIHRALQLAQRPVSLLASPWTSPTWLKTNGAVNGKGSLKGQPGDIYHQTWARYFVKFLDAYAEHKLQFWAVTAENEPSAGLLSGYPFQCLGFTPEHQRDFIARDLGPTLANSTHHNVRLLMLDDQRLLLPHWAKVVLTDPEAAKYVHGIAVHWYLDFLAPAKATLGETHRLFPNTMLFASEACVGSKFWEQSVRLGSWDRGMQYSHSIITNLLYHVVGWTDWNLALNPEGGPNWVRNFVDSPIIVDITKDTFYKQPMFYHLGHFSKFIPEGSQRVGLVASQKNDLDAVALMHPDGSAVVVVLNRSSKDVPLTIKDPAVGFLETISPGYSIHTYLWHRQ
# Method: The binding affinity (defined here by Ki binding constant) of GCase for small molecule pharmacological chaperones described in this document were empirically determined using enzyme inhibition assays. In brief, the enzyme inhibition assays used monitored the ability of test compound to bind and prevent the hydrolysis of a fluorogenic substrate in a concentration-dependent manner. Specifically, the enzyme activity of recombinant human GCase (rhGCase; Cerezyme®, Genzyme Corp.) was measured using the 4-methylumbelliferyl-β-D-glucopyranoside (4-MU-β-D-Glc) fluorogenic substrate in the absence or in the presence of varying amounts of each test compound. […] The enzyme inhibition assays were performed at both pH 7.0 (endoplasmic reticulum pH) and at pH 5.2 (lysosomal pH) to gain insight into the binding affinity (i.e., potency) of compounds for GCase in the endoplasmic reticulum and lysososome.
# Various concentrations of test compounds were prepared in buffer “M” consisting of 50 mM sodium phosphate buffer with 0.25% sodium taurocholate at pH 7.0 and pH 5.2. Enzyme (Cerezyme®, a recombinant form of the human enzyme β-glucocerebrosidase) was also diluted in the same buffer “M” at pH 7.0 and pH 5.2. […] Fluorescence was measured on a plate reader for 1 sec/well using 355 nm excitation and 460 nm emission.
# lysosomal GCase = molecular target: T2, lysosomal GCase (Homo sapiens, UniProt P04062); experiment: In situ washout assay in fibroblasts (recovery of lysosomal GCase activity after compound removal); type: cell-based; conditions: fibroblasts treated at IC90 for 16-24 hours, then drug-free medium; single exponential fit
# T2 construct: assayed in situ using fibroblasts established from a normal subject; endogenous in cells; host or cells: fibroblasts from a normal subject
# T2 sequence (P04062 40-536): T1 sequence (P04062 40-536 R534H) with H495R
# Method: Cells seeded in 48-well plates were incubated with the indicated concentrations of compound for 16-24 hours. For the dose-response assays, cells were incubated with the in situ substrate 5-(pentafluorobenzoylamino)fluorescein di-β-D-glucopyranoside (PFBFDβGlu) for 1 hour and subsequently lysed to determine the extent of substrate hydrolysis in the presence of compound. […] Inhibition was determined as the ratio of activity in the presence of compound to that in the absence of compound. […] Cells were washed extensively and incubated in drug-free medium to allow net compound efflux from cells. Cells were then tested for lysosomal GCase activity at 2 hour intervals over a total period of 8 hours following compound removal. The increase in activity over time was fitted with a single exponential function to determine the compound's washout time.
# GCase = molecular target: T3, GCase (Homo sapiens, UniProt P04062); experiment: Concentration-dependent increase in GCase activity (EC50, Emax); type: cell-based; conditions: result in words
# T3 sequence (P04062 40-536): T1 sequence (P04062 40-536 R534H) with H495R
compound,measurement,setting,value
"O[C@@H]1[C@@H](CCl)CNC[C@H]1O [Compound B, (3R,4R,5S)-5-(chloromethyl)piperidine-3,4-diol]",IC50,[1],73 ± 9 nM
same,In Situ Washout,lysosomal GCase,2.9 ± 0.22 h
same,effect on GCase activity,GCase,concentration-dependent increase in GCase activity
same,enhancement of enzyme activity compared to IFG-tartrate,GCase,enhanced enzyme activity to the same maximum level at much lower concentration
